One test has as its system PficOrco/PficOR8. Kind of test: Fluo4-AM calcium fluorescence, FlexStation-3, HEK293 cells. The test is classed as cell-based, Planococcus ficus. The conditions noted are these: agonist; doxycycline-induced cells; 0.5 % DMSO.
A further test relates to PficOrco/PficOR6. The test is described as above. Format: cell-based, Planococcus ficus. As to conditions: agonist; doxycycline-induced cells; 0.5 % DMSO.

The source of these data is PMC10837065 (Current Research in Insect Science, 2024).

The term EC50 denotes the concentration that produces a half-maximal response. Regarding `CCCC(=O)OCC(CC=C(C)C)=C(C)C` [2-isopropyliden-5-methyl-4-hexen-1-yl butyrate], the half-maximal effective concentration (EC50) with PficOrco/PficOR8 was 8.6 µM.

Regarding `C=C(C)C(CC=C(C)C)COC(=O)C=C(C)C` (stereo not drawn) [lavandulyl senecioate], the half-maximal effective concentration (EC50) amounted to 52.6 µM in the test with PficOrco/PficOR8 and 4.6 µM with PficOrco/PficOR6.
